Entries after “also recorded” stand apart in the source; their conditions may differ.
Target: T1, DNA gyrase (Escherichia coli, UniProt P0AES4+P0AES6)
T1 construct: His6 (N); made in house; host or cells: Escherichia coli Rosetta (DE3)
Assay: Inhibition of DNA gyrase supercoiling of relaxed plasmid pBR322 (agarose gel electrophoresis)
Format: biochemical, E. coli
Settings: qualitative statement
Protocol: The reaction mixture (30 µl) contained 35 mM Tris-HCl (pH 7.5), 24 mM KCl, 4 mM MgCl 2 , 1.4 mM ATP, 5 mM DTT, 1.8 mM spermidine, and 0.1 mg/ml of a bovine serum albumin. A mixture of DNA gyrase A and B subunits (0.4 µg) and 0.25–0.5 µg of the substrate (relaxed plasmid pBR322) were added to the reaction probe. The reaction was performed for 60 min at 25°C (for multiple samples, 96-well plates were used). After the reaction was completed, the samples were extracted with an equal volume of chloroform (30 µl). Then, 7 µl of the mixture containing […], 25% of glycerol, and 0.25% of bromphenol blue were added to the aqueous phase. The mixture was applied on a 1.2% agarose gel in TAE buffer (40 mM Tris-acetate, pH 8.0, 2 mM EDTA) and analyzed with electrophoresis (50 V, 2 h). The products were visualized under UV-light after staining with ethidium bromide. The activity of the enzyme (%) was determined from the intensity of the band corresponding to the super-coiled form of plasmid pBR322 and estimated using the Total Lab v2.01 software.
An equal volume of DMSO was added to the control. The reaction was started upon addition of DNA gyrase (0.4 µg) and relaxed plasmid pBR322 (0.25–0.5 µg), which was used as a substrate, and performed as described above. Calculations were made using the Total Lab v2.01 program.

T1 sequence (P0AES4 whole entry, one chain of several): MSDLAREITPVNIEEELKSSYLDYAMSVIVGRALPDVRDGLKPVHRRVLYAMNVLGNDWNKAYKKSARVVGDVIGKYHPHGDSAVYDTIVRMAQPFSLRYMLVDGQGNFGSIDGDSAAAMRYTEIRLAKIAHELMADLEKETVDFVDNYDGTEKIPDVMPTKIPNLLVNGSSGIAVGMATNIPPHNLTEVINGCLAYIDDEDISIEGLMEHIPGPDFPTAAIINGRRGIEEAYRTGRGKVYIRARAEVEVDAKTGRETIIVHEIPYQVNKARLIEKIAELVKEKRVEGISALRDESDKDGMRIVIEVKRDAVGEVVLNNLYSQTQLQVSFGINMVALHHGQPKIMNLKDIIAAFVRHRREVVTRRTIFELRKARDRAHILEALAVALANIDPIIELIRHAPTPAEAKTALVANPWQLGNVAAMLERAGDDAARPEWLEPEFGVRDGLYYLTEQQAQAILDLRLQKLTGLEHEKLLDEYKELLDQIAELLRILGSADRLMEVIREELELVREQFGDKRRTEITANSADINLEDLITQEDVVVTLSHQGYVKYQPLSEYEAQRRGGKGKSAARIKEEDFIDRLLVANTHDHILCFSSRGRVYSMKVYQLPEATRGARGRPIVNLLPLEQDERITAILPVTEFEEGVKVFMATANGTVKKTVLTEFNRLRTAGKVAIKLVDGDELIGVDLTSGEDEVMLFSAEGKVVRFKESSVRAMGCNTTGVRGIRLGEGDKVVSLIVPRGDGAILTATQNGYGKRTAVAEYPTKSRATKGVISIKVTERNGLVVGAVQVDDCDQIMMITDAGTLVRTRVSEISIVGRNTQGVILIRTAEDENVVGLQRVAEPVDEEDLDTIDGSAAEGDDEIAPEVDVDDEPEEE

Q: For CC1COc2c(ccc(F)c2F)N1 (racemic) [IOS-RS, (R,S)-7,8-Difluoro-3-methyl-2,3-dihydro-4H-benzo[b][1, 4]-oxazine], which “Inhibitory activity towards DNA gyrase, in words” value is on record?
A: no significant activity

Q: How did the “Inhibitory activity towards DNA gyrase, in words” value turn out when CCn1cc(C(=O)O)c(=O)c2cc(F)c(N3CCNCC3)cc21 [IOS-NORFL_01, norfloxacin, reference compound] was run?
A: poor inhibitor

Q: C[C@H]1COc2c(ccc(F)c2F)N1 [IOS-S, (3S)-2,3-Dihydro-3-methyl-7,8-difluoro-1,4-benzoxazine] was tested. Which “Inhibitory activity towards DNA gyrase, in words” value did it give?
A: no significant activity

Q: With C[C@H]1COc2c(F)c(F)cc3c(=O)c(C(=O)O)cn1c23 [IOS-K, (3S)-(-)-Difluoro-3-methyl-7-oxo-2,3-dihydro-7H-pyrido[1,2,3-d,e][1, 4]-benzoxazine-6-carboxylic acid] as the compound, how does the “Inhibitory activity towards DNA gyrase, in words” value read?
A: significant inhibitory activity

Q: For CCOC(=O)c1cn2c3c(c(F)c(F)cc3c1=O)OC[C@@H]2C [IOS-E, Ethyl ester of (3S)-(-)-9,10-difluoro-3-methyl-7-oxo-2,3-dihydro-7H-pyrido[1,2,3-d,e][1, 4]-benzoxazine-6-carboxylic acid], which “Inhibitory activity towards DNA gyrase, in words” value is on record?
A: no significant activity; also recorded: practically inactive

Same assay, conditions: relative to levofloxacin, in words

Q: For CN1C2=Nn3cc(C(=O)O)c(=O)c4c(F)c(F)c(N5CCCC5)c(c43)N2c2cc(F)c(F)cc21 [EV-465], which “Activity towards DNA gyrase compared with that of levofloxacin” value is on record?
A: two orders of magnitude

Q: For C[C@H]1COc2c(F)c(F)cc3c(=O)c(C(=O)O)cn1c23 [IOS-K, (3S)-(-)-Difluoro-3-methyl-7-oxo-2,3-dihydro-7H-pyrido[1,2,3-d,e][1, 4]-benzoxazine-6-carboxylic acid], which “Activity towards DNA gyrase compared with that of levofloxacin” value is on record?
A: lower by an order of magnitude

Same assay, conditions: relaxed pBR322, 60 min, 25°C

Q: With CCSc1nc(Nc2ccc(F)c(F)c2)c2cc(F)c(F)c(F)c2n1 [EV-X58-A] as the compound, how does the “I50 (inhibition activity towards DNA gyrase)” value read?
A: EV-X58-A Inactive

Q: O=C(C(=C1Nc2ccccc2N1)c1nc(=O)c2cc(F)c(F)c(F)c2s1)c1ccccc1 [EV-N51-B] was tested. Which “I50 (inhibition activity towards DNA gyrase)” value did it give?
A: EV-N51-B Inactive

Q: How did the “I50 (inhibition activity towards DNA gyrase)” value turn out when Oc1ccccc1/C=N\Nc1nc(-c2ccccc2)nc2cccc(F)c12 [EV-T150-C] was run?
A: EV-T150-C Inactive

Q: How did the “I50 (inhibition activity towards DNA gyrase)” value turn out when O=c1nc(Nc2ncccn2)sc2c(F)c(F)c(F)cc12 [EV-N119-2] was run?
A: EV-N119-2 Inactive

Q: For CC(C)(C)c1cc(-n2c(-c3ccccc3)nc3cc(F)c(F)cc3c2=O)no1 [EV-X149], which “I50 (inhibition activity towards DNA gyrase)” value is on record?
A: EV-X149 Inactive

Q: For CCOC(=O)c1cn2c3c(c(F)c(F)cc3c1=O)OC(c1cccnc1)=N2 [EV-313-D], which “I50 (inhibition activity towards DNA gyrase)” value is on record?
A: EV-313-D Inactive

Q: O=C(O)c1cn2c3c(c(F)c(F)cc3c1=O)NC(c1ccccc1)=N2 [EV-591] was tested. Which “I50 (inhibition activity towards DNA gyrase)” value did it give?
A: EV-591 Inactive

Q: Which “I50 (inhibition activity towards DNA gyrase)” value does the source give for O=c1[nH]c(N/N=C/c2ccccc2O)nc2c(F)c(N3CCCC3)c(F)cc12 [EV-T143-B] here?
A: EV-T143-B Inactive

Q: How did the “I50 (inhibition activity towards DNA gyrase)” value turn out when O=c1c2cc(F)c(F)cc2nc(/C=C/c2ccccc2O)n1-c1ccccc1 [EV-T156] was run?
A: EV-T156 Inactive

Q: With O=C(O)c1cn2c3c(c(N4CCCC4)c(F)cc3c1=O)OC(c1cccc([N+](=O)[O-])c1)=N2 [EV-452-D] as the compound, how does the “I50 (inhibition activity towards DNA gyrase)” value read?
A: EV-452-D Inactive

Q: Which “I50 (inhibition activity towards DNA gyrase)” value does the source give for O=C(O)c1cn2c3c(c(N4CCOCC4)c(F)cc3c1=O)SC(NC1CCCCC1)=N2 [EV-572] here?
A: EV-572 Inactive

Same assay, conditions: relaxed pBR322, 60 min, 25°C; read-out: I50 (inhibition activity towards DNA gyrase)

Q: CN1C2=Nn3cc(C(=O)O)c(=O)c4c(F)c(F)c(N5CCCC5)c(c43)N2c2cc(F)c(F)cc21 [EV-465] was tested. Which IC50 did it give?
A: > 63.4 µM
